# Results as given in paper PMC12489660, “Multitargeted Caffeic Acid Derivatives Inhibit Cardiac RyR2- and NaV1.5- Channels but Stimulate SERCA2a Pump Activity” (ACS Omega, 2025).
# “And” between values parts separate entries of the source, which are not always exact repeats. Equal entries are not always repeated.
# How the values were obtained:
# wild type mouse RyR2 = target: T1, wild type mouse RyR2 (Mus musculus, UniProt E9Q401); assay: Time-lapse [Ca2+]ER assay in HEK-293 RyR2 R-CEPIA1er cells (RyR2 activity assay); format: cell-based; details: 25 μM; for effect on RyR2 activity / [Ca2+]ER (in words): vs control 0.1 v/v% DMSO; for RyR2 activity: percentage from the control sample (100%), mean ± SEM;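 on all read-outs here: ER Ca2+ read as R-CEPIA1er fluorescence ratio F/F0 (F0 mean of initial 90 s, F mean of final 100 s), compared with vehicle-treated control wells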
# T1 construct: expressed in transfected cells; host or cells: HEK-293 cells stably expressing WT RyR2 and R-CEPIA1er (gift of Dr. Takashi Murayama), induced with doxycycline
# SERCA2 = SERCA2 (Mus musculus, UniProt O55143); assay: Caffeine induced calcium release assay on live HL-1 cardiomyocytes; format: cell-based; details: for activation of SERCA2 in HL-1: 10 μM, percentage from the control sample (100%), mean ± SEM; for EC50: 2 h preincubation, 10 mM caffeine, read-out: activation of SERCA2 in HL-1, EC50 (converted);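 on all read-outs here: Read-out: caffeine-evoked peak minus basal fluorescence (ΔF Caff) of cytoplasmic FLIPR Calcium 6 dye, recorded for 1 min, compared with Tyrode's solution plus 0.1 v/v% DMSO as control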
# SERCA2a = target: T2, SERCA2a (Mus musculus, UniProt O55143); assay: NADH-coupled ATPase assay on microsomal membrane vesicles from mouse heart ventricles (mouse SER); format: biochemical; details: for ATPase activity of SERCA2a in mouse SER / effect on SERCA2a ATPase activity (in words): 10 μM; for ATPase activity of SERCA2a in mouse SER: percentage from the control sample (100%), mean ± SEM; for EC50: kinetic rate of NADH–NAD+ conversion, Figure S10: 200 µM free Ca2+; for effect on SERCA2a ATPase activity (in words): mouse SER
# T2 construct: from tissue; host or cells: adult mouse heart ventricles, microsomal membrane vesicles
# Method: To this end, we tracked the rate of nicotinamide adenine dinucleotide (NADH) oxidation linked to ATP hydrolysis by observing changes in NADH fluorescence over time. This was done after addition of ATP to solutions containing microsomal membranes enriched with SER vesicles isolated from adult mouse heart ventricles (mouse SER). The NADH fluorescence decrease was recorded on a FlexStation 3 Multimode Microplate Reader. […] We detected the highest increase in ATPase activity (up to 118%), when the vesicles were treated with borate complex 11–13 (Table ). We tested compounds 11–13 in the NADH assay buffer to see whether these compounds could contribute to the rate of NADH fluorescence reduction (Figures S7–S9). No significant deviations were found in the rate of NADH consumption compared to the control sample (0.1 v/v% DMSO).
# Isolation of Microsomal Membrane Vesicles from mouse hearts was done according to procedure described earlier. All animal procedures were performed in accordance with national and institutional regulations.
# Mouse ventricular microsomes (4–5 μg of total protein) were diluted in 100 μL of the assay buffer used for measurement of SERCA activity (described below) and incubated at room temperature for 10 min prior to the experiments. The measurements of SERCA2 activity were made at 25 °C by using a NADH -coupled ATPase assay as described in Radnai et al. with slight modifications. Briefly, the assay buffer contained 60 mM MOPS, 120 mM KCl, 6 mM MgCl2, 1 mM EGTA, 5 mM NaN3, 0.5 mM phosphoenolpyruvate and 0.67 mM CaCl2, pH 7.0. Before the reaction was started by the injection of 10 μL ATP (resulting in 2 mM final concentration in the well), 5 units/mL of both lactate dehydrogenase and pyruvate kinase, 0.5 mM NADH, and 1 μM Ca^2+ ionophore A-23187 (Sigma, C-7522) were added to the diluted sample with or without the tested compound (volume −150 μL). […] The NADH fluorescence decrease was recorded each 2 s for 5 min course on a FlexStation 3 Multi-Mode Microplate Reader in 96-well glass bottom plates (MatTek Corporation; Cat. No. PBK96G-1.5-5-F). Fluorescence was evoked by 380 nm excitation wavelength and collected in a bottom-read mode at 425 nm, cutoff–470 nm, 4 flashes per read. ATP was injected at 60 s, speed–125 μL/s, pipet height–140 μL. The data were analyzed with computer software GraphPad Prism version 8.3.1 (GraphPad Software, Inc.). The difference in signal decrease with and without microsomes was taken as an indicator for the additional ATPase activity performed by SERCA2. The obtained values for maximal SERCA2 activity were normalized for total protein concentration. Maximal SERCA2 activity values are reported as percentages of control (0.1% DMSO) values. Microsomal samples that were kept on ice until usage and set to 100%.
# human NaV1.5 = human NaV1.5 (Homo sapiens, UniProt Q14524); assay: FLIPR membrane potential assay on CHO NaV1.5 Duo cells (veratridine-induced); format: cell-based; details: for NaV1.5 activity in CHO cells: 10 μM, percentage from the control sample (100%), mean ± SEM; for effect on NaV1.5 activity (in words): concentration range 0.1 to 100 μM
# [1] = PermeaPad membrane permeability; format: in vitro ADME; details: not told, room temperature, class low/medium in parentheses, read-out: P e (permeability rate)
# Description: We determined permeability rates (P e ), which are a measure of how fast a compound can cross a membrane, using cell-free transport models (PermeaPad, innoME GmbH) The CA derivatives have medium to low permeability rates in the range 1.0–24.0 nm/s (Table ). Similar to S36, despite poor permeability, compounds 2–4, 8, and 9 acted on live RyR2-HEK-293 R-CEPIA1er cells inhibiting RyR2. […] Since PermeaPad is an artificial model that primarily reflects passive diffusion, it is likely that additional mechanisms contribute to the crossing of cell membranes by these compounds.
# Membrane permeability was assessed using PermeaPad Plate according to the manufacturing procedure (innoME GmbH, Espelkamp, Germany). Briefly, 200 μL (V A) water was added into acceptor plate. 200 μL (V D) of 100–500 μM test compound in water was added directly to the well membranes of the donor plate. The donor plate contains a biomimetic membrane for simulating passive mass transfer through different barriers in the body. Then the donor plate was placed into the acceptor plate wells and incubated at room temperature for 24 h in dark. To determine peak absorbance of test compounds, absorbance spectra of acceptor solutions and initial solutions for each test compound were read out. The Permeability Rate (P e) was calculated using the formula:
# P e = C × −ln (1 – ODA/ODB) cm/s, where OD A is the absorbance of acceptor solution, OD B is the absorbance of the standard solution; if the compound is able to permeabilize the membrane and fully reach equilibrium, 250 μM will be the final concentration of solution in the donor and acceptor wells. The coefficient C was calculated using the formula: C=VD×VA/(VD+VA)×Area×time where V A–acceptor volume (cm^3), V D–donor volume (cm^3), membrane area 0.24 cm^2, time is 86,400 s.
# HL-1 cells = assay: CytoTox-Glo Cytotoxicity Assay; format: cell-based; details: 24 h, concentrations up to 1 μM
# Method: Cell viability was assessed using CytoTox-Glo Cytotoxicity Assay according to the manufacturing procedure (Promega GmbH). Briefly, HL-1 cells were cultivated for 24 h in black-walled, clear-bottom 96-well microplates (Corning) covered with fibronectin/gelatin in DMEM, containing different concentrations of the tested compound (10,000 cells/well). Luminescence of a luminogenic peptide substrate was measured before and after addition of the lysis reagent (digitonin). The viable cell contribution was determined by a subtractive method. 0.1% DMSO treated cell were taken as a control.
# SERCA2b = target: T3, SERCA2b (Homo sapiens, UniProt P16615); assay: NADH fluorescence-coupled ATPase assay on microsomal membranes isolated from HEK-293T cells; format: biochemical; details: 10 µM, HEK-293T microsomal membranes
# T3 construct: endogenous in cells; host or cells: HEK-293T cells, microsomal membranes
# Description: HL-1 cells are known to express cardiac SERCA2a. […] HL-1 cells are in fact derived from mouse atrial cardiomyocytes that coexpress SERCA2a and SERCA2b. , We assumed that such behavior of compounds 1 and 5 is associated with their selective action on additional SERCA2 isoform present in these cells.
# [2] = parameters: method as in earlier work; details: class low in parentheses; ref (number not given); cited from earlier work
# T1 sequence (E9Q401 whole entry): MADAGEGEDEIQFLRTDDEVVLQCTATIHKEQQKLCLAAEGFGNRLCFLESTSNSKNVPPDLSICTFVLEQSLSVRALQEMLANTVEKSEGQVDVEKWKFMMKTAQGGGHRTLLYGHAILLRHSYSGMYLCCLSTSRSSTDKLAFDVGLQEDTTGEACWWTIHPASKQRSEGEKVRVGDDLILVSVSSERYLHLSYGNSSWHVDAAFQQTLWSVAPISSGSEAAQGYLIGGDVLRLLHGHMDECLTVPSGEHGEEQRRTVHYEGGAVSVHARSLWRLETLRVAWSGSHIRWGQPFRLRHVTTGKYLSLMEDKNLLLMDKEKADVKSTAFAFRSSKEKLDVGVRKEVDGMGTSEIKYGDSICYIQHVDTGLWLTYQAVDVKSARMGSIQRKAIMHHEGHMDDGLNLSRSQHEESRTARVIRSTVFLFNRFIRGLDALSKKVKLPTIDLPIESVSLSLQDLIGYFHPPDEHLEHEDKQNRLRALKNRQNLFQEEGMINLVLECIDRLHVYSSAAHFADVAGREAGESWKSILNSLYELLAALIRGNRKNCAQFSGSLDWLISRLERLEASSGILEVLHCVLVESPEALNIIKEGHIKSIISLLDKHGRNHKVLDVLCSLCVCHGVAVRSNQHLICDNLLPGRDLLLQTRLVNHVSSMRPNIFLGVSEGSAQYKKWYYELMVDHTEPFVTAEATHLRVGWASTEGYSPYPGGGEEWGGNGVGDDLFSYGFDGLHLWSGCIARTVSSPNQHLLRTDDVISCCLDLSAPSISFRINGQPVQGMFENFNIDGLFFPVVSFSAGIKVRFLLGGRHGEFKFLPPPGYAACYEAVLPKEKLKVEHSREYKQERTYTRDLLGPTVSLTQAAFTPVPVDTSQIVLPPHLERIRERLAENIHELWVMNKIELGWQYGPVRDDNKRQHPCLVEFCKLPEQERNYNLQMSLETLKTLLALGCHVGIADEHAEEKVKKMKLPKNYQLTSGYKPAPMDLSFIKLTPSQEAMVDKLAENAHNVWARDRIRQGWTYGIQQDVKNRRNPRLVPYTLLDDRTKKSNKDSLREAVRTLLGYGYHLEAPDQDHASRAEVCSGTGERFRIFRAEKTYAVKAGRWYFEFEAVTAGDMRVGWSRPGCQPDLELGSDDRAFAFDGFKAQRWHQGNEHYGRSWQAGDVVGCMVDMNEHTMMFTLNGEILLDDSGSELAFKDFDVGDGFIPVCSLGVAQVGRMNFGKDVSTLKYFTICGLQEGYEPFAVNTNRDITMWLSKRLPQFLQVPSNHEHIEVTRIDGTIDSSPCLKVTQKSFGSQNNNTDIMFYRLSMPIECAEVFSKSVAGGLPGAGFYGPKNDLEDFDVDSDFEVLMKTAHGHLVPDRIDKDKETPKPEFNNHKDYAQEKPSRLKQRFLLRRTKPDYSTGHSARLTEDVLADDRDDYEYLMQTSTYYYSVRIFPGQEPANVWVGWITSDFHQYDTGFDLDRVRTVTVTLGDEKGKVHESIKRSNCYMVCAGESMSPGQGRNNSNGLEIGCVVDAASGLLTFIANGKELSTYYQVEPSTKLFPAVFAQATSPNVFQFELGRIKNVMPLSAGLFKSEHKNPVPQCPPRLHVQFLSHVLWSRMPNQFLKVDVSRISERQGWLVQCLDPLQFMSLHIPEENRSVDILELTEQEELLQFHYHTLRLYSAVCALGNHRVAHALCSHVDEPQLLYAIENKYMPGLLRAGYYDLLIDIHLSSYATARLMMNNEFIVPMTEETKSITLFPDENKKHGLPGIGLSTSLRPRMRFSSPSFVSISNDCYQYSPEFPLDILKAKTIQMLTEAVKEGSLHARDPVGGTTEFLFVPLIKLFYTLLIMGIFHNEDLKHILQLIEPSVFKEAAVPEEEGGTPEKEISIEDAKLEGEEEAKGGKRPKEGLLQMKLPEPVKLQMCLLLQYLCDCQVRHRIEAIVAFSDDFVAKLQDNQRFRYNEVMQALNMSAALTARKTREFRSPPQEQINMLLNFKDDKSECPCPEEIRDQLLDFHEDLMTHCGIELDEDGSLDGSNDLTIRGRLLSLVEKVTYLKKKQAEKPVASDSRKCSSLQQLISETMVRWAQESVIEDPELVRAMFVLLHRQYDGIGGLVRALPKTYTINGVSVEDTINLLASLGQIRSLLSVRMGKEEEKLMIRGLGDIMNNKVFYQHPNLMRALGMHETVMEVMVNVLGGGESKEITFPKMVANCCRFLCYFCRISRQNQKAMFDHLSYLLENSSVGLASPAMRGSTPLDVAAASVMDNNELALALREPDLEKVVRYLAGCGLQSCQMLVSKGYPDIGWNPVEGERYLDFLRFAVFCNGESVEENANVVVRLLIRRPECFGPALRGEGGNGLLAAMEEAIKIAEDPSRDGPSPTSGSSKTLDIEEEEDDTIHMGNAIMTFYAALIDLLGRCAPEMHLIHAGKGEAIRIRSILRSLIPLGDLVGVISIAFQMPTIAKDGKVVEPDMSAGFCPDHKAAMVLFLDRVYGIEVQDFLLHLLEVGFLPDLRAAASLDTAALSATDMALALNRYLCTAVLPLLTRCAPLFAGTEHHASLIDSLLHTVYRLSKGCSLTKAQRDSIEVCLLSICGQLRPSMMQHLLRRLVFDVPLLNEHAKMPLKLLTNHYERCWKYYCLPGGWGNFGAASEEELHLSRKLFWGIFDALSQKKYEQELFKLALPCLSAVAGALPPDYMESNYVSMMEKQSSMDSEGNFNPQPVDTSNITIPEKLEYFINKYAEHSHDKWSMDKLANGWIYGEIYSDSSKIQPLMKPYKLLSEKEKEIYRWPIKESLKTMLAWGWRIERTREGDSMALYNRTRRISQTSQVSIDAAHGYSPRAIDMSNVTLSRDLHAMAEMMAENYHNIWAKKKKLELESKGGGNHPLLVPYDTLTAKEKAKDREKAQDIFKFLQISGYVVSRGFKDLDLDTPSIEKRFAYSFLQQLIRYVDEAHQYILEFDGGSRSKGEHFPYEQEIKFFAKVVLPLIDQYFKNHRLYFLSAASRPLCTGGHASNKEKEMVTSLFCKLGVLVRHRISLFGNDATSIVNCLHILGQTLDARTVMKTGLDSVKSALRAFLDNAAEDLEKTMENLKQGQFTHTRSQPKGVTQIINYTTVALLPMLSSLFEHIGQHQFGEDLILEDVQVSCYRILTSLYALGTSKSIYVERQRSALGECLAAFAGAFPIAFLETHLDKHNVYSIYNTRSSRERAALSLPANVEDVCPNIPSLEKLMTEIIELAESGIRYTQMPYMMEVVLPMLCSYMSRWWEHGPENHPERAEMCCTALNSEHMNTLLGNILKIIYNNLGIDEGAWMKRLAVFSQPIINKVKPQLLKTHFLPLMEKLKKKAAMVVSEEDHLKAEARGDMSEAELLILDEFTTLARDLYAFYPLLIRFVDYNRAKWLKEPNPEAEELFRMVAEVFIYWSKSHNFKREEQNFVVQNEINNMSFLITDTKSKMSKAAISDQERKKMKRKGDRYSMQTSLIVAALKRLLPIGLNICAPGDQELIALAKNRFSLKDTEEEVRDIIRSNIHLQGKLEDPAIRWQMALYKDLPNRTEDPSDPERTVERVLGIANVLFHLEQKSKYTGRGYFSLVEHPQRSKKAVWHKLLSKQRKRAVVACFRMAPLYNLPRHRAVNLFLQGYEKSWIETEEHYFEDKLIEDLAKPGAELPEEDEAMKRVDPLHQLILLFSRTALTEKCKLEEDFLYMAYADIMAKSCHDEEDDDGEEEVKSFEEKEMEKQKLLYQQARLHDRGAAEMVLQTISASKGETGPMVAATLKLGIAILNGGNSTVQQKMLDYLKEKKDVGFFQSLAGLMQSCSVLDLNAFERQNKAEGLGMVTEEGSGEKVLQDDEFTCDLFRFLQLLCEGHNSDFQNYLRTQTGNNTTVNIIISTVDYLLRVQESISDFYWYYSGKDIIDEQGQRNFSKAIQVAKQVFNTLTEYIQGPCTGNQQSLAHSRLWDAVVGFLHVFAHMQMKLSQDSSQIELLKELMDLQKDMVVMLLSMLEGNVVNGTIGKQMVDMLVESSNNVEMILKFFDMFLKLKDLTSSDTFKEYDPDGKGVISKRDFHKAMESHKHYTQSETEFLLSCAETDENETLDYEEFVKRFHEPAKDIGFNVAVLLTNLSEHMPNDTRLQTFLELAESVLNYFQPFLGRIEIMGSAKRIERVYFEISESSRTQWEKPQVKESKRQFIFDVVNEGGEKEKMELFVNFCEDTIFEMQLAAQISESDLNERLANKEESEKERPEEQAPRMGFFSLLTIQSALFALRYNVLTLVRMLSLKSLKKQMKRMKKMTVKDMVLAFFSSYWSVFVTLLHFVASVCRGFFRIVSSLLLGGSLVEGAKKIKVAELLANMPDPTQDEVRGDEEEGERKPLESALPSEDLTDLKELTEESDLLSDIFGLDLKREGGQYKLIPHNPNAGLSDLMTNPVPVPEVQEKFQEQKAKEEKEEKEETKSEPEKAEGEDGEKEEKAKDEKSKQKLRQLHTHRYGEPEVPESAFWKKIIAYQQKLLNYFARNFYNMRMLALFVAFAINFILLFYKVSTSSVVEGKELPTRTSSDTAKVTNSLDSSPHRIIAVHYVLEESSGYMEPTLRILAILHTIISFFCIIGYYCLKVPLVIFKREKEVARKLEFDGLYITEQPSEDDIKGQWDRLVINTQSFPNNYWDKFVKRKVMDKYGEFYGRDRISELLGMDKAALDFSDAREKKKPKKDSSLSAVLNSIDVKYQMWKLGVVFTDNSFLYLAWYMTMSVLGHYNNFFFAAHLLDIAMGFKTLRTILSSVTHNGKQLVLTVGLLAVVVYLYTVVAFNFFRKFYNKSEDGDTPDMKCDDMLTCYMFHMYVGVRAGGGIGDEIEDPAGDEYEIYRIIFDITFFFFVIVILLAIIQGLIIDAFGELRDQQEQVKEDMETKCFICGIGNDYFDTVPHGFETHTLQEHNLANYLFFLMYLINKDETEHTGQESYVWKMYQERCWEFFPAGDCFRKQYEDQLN
Compound,effect on RyR2 activity / [Ca2+]ER (in words) (wild type mouse RyR2),RyR2 activity (wild type mouse RyR2),activation of SERCA2 in HL-1 (SERCA2),EC50 (SERCA2; HL-1 cells),ATPase activity of SERCA2a in mouse SER (SERCA2a),EC50 (SERCA2a),NaV1.5 activity in CHO cells (human NaV1.5),effect on NaV1.5 activity (in words) (human NaV1.5),Papp at 24 h [1],viability of HL-1 cells (in words) (HL-1 cells),effect on SERCA2a ATPase activity (in words) (SERCA2a),effect on ATPase activity (in words) (SERCA2b),"stimulatory effect compared to the control (SERCA2; HL-1 cells, from 1 to 10 μM, bell-shaped dose response, decreased at higher doses)",P e (permeability rate) [2]
COc1ccc2c(c1)CN(CCCCCCCCNC/C=C/c1ccc(O)c(O)c1)CCS2 [Compound 9],significantly increased [Ca^2+]ER,105.7 ± 0.4%,164.0 ± 3.0%,10.9 µM,113.1 ± 2.1%,41 nM and 41.2 nM,106.0 ± 1.0%,no effect on NaV1.5,0.4 ×10⁻⁶ cm/s,remained unchanged,,,,
"COc1ccc(OCCCNC(=O)/C=C/c2ccc(O)c(O)c2)cc1 [Compound 1, (E)-3-(3,4-Dihydroxyphenyl)-N-(3-(4-methoxyphenyloxy)propyl)acrylamide]",did not affect the RyR2 activity,100.8 ± 1.3%,157.7 ± 7.1%,15 µM and 14.9 µM,98.2 ± 6.5%,,91.8 ± 1.0%,,1.8 ×10⁻⁶ cm/s,,did not evoke a significant increase in ATPase activity,significantly increased the ATPase activity,,
COc1ccc2c(c1)CN(CCCCCCCC[NH+]([BH2-]C#N)C/C=C/c1ccc(O)c(O)c1)CCS2 (stereo not drawn) [Compound 13],significantly increased [Ca^2+]ER,103.0 ± 0.4%,299.1 ± 12.8%,2.5 µM,115.5 ± 3.7%,23 nM and 23.1 nM,83.3 ± 0.9%,,0.1 ×10⁻⁶ cm/s,remained unchanged,,,up to 300%,
COc1ccc2c(c1)CN(CCCCNC(=O)/C=C/c1ccc(O)c(O)c1)CCS2 [Compound 5],did not affect the RyR2 activity,100.5 ± 0.8%,190.6 ± 6.6%,9 µM and 9.1 µM,109.0 ± 4.0%,,97.7 ± 1.9%,,0.9 ×10⁻⁶ cm/s,,did not evoke a significant increase in ATPase activity,significantly increased the ATPase activity,,
"COc1ccc2c(c1)CN(C(=O)C(=O)O)CCS2 [Compound S36, reference compound]",increase in R-CEPIA1er fluorescence,103.4 ± 0.7%,,,,,,no effect on NaV1.5 activity,,,,,,"1.0 (low, ref ) 10^–6 cm/s"
